According to ChEMBL document CHEMBL4400584, “Relative Configurational Assignment of 4-Hydroxyprorocentrolide and Prorocentrolide C Isolated from a Benthic Dinoflagellate ( Prorocentrum lima)” (J Nat Prod, 2019):

Key:
Type in all cases: functional, cell-based
[1] = test system: HCT-116; assay: Cytotoxicity against human HCT116 cells assessed as reduction in cell viability after 48 hrs by MTT assay; conditions: HCT-116, 48 h
[2] = test system: N2a; assay: Cytotoxicity against mouse Neuro2a cells assessed as reduction in cell viability after 48 hrs by MTT assay
[3] = test system: HepG2; assay: Cytotoxicity against human HepG2 cells assessed as reduction in cell viability after 48 hrs by MTT assay; conditions: HepG2, 48 h

Row | Compound | IC50 [1] [µM] | IC50 [2] [µM] | IC50 [3] [µM]
1 | C=C1CCC[C@H]2O[C@H](CC3=C[C@@H]4/C(C)=C/C[C@@H](C)C[C@@H](/C=C(\C)[C@@H](O)[C@@H]5C[C@@H](O)[C@H](O)[C@@H](CC[C@H](O)/C=C/C(C)=C/CCC6=NCC[C@H](C3)[C@@]64C)O5)OC(=O)C[C@@H]3O[C@H]([C@@H](O)[C@H]3O)[C@@H](O)C1)C[C@@H](O)[C@@H]2O | > 10 | > 10 | > 10
2 | C=C1CC/C=C/[C@@H](O)[C@H](O)C[C@H](O)CC2=C[C@@H]3/C(C)=C/C[C@@H](C)C[C@@H](/C=C(\C)[C@@H](O)[C@@H]4C[C@@H](O)[C@H](O)[C@@H](CC[C@H](O)/C=C/C(C)=C/CCC5=NCC[C@H](C2)[C@@]53C)O4)OC(=O)C[C@@H]2O[C@H]([C@@H](O)[C@H]2O)[C@@H](O)C1 | 2.2 | 5.2 | > 50
